Patent US20170246129A1, “COMPOSITION USING GUANIDINE COMPOUND FOR SUPPRESSING TRANSFORMING GROWTH FACTOR (TGF)-beta” (Peking University Third Hospital, priority 2016, published 2017)
Where a name gives a salt, the structure may show the parent alone. Read-outs that look alike come from different tables or passages of the source.

Legend:
[1] = tested on: TGFβ1 induced phosphorylated Smad3 (p-Smad3); assay: Western blotting of TGFβ1 induced phosphorylated Smad3 in 3T3 cells; assay type: cell-based, mouse; conditions: compound 1 mmol/L premixed with TGF-β1 (5 ng/mL) for 2 h, 3T3 cells treated 30 min, FIG. 9
Experimental: 2: Moroxydinehydrochloride (dissovled in ddH2O, 1 mmol/L); 3: Phenylbiguanide (dissolved in DMSO, 1 mmoL/L); 4: 1-(2,3-Dichlorophenyl) biguanide hydrochloride (dissolved in DMSO, 1 mmoL/L); 5: 1,3-Di(o-tolyl)guanidine (dissolved in DMSO, 1mmoL/L); 6: Buformin hydrochloride (dissolved in EtOH, 1 mmol/L). These compounds and TGF-β1 (5 ng/mL) were premixed for 2 h separately and then 3T3 cells were treated with the mixture for 30 min prior to sample collection. […] Bicinchoninic acid reagents were used to measure the protein concentration. Equal amounts of proteins were separated by SDS-PAGE and transferred to polyvinylidene difluoride membranes. The blots were immunoreacted with primary antibodies and secondary antibodies conjugated with horseradish peroxidase. […] GAPDH antibodies were purchased from Santa Cruz Biotechnology (Santa Cruz, Calif., USA). Protein bands were visualized by enhanced chemiluminescence detection and the intensity was quantified by use of Image-J software.

[2] = target: T1, [125I]-TGFβ1 binding to its receptor in 3T3 mouse fibroblasts (Homo sapiens, UniProt P01137); assay: [125I]-TGFβ1 binding assay; conditions: printed as log[IC50], 50 pM [125I]-TGFβ1, 4 h at 4° C., four independent experiments, read-out: log[IC50] of [125I]-TGFβ1 binding inhibition (converted)
T1 construct: endogenous in cells; host or cells: 3T3 mouse fibroblasts
Experimental: 3T3 mouse fibroblasts were seeded in a 24 well-plate and cultured in DMEM supplemented with 10% FBS and antibiotics (100 U/mL penicillin-streptomycin). […] After 4 h at 4° C., the medium was removed and cells were washed five times with ice-cold binding buffer (50 mM HEPES, 128 mM NaCl, 5 mM KCl, 5 mM MgSO4, and 1.2 mM CaCl2). The cells were then solubilized using binding buffer containing 1% Triton X-100 and the radioactivity was measured. Non-specific binding was determined in the presence of an excess (10 nM) of unlabeled TGFβ1.

[3] = target: TGF-β1 (Homo sapiens, UniProt P01137); assay: Surface plasmon resonance (SPR)-based assay; conditions: Biacore T200, 25° C., TGF-β1 on CM5 chip, steady-state single site binding model
Experimental: Experiments were performed at 25° C. using a Biacore T200 and the data were analyzed using Biacore T200 evaluation software 2.0 (GE Healthcare, Stockholm, Sweden). […] The steady-state values were calculated from the sensorgrams and plotted against the concentrations. The data were fit to a single site binding model to calculate the KD.

[4] = target: T2, TGF-β1/TβRII (Homo sapiens, UniProt P01137); assay: AFM single-molecule force spectroscopy of TGF-β1-TβRII binding on HeLa cells
T2 construct: expressed in transfected cells; host or cells: HeLa
Experimental: The present invention investigated the binding force and the binding probability between TGF-β1 and TβRII on live cells using AFM-based single-molecule force spectroscopy. TGF-β1-modified AFM tips (type: NP-10, Bruker, Santa Barbara, Calif., USA) were prepared as followed. The spring constants of the tips, calibrated by the thermal fluctuation method, were in the range of 0.025-0.045 N/m. The tips were first cleaned and hydroxized through the treatment with chloroform, HF acid, alkaline solution (NH4OH/H2O2/H2O) 1:1:5, v/v) and piranha solution (98% H2SO4/H2O2) 7:3, v/v), respectively, to generate Si-OH on the wafers. Then they were transferred to a solution of 1.0% (v/v) MPTMS in toluene, incubated for 2 h at room temperature, and rinsed thoroughly with toluene to be modified with —SH groups. […]
Hela cells were transfected with the TβRII-GFP plasmid for 24 h, and the force measurements were performed on a PicoSPM II system with a PicoScan 3000 controller and a large scanner (Agilent, Santa Clara, Calif., USA). The AFM scanner was mounted on an inverted fluorescence microscope (Olympus IX71, Japan). […] All of the force curves were measured with the contact mode at room temperature using a soft cantilever (0.06 N m-1). […] The force curves were recorded using PicoScan 5 software (Molecular Imaging, Tempe, Ariz., USA) and analyzed using a program in MATLAB (MathWorks Corp., Natick, Mass., USA.).

[5] = tested on: TβRII-GFP on HeLa cells; assay: Single-molecule fluorescence imaging (TIRFM) of TGF-β1-induced TβRII dimerization; assay type: cell-based; conditions: TGF-β1 10 ng/mL, 15 min at 37° C., FIG. 2D
Experimental: In the previous study, individual green fluorescent protein (GFP)-tagged TβRII molecules were imaged on the cell membrane by total internal reflection fluorescence microscopy (TIRFM) to study the receptor activation.
Single molecule fluorescence imaging was performed with objective-type total internal reflection fluorescence microscopy (TIRFM) using an inverted Olympus IX71 microscope equipped with a total internal reflective fluorescence illuminator'a, 100X/1.45NA Plan Apochromat TIR objective and an intensified CCD (ICCD) camera (Pentamax EEV 512×512 FT, Roper Scientific). Hela cells were transfected with TβRII-GFP plasmid for 4 h, washed, and then imaged in the serum-free and phenol red-free MEM under the fluorescence microscopy. GFP was excited at 488-nm by an argon laser (Melles Griot, Carlsbad, Calif.). Movies of 200-300 frames were acquired for each sample at a frame rate of 10 Hz. […] To analyze single-molecule fluorescence intensity and the photobleaching steps, regions of interest for bleaching analysis were selected as followed. Firstly, the background fluorescence was subtracted from the movie acquired from the fixed cells using rolling ball method in Image J software (National Institutes of Health). […] Finally, time courses and the integrated fluorescence intensity of regions which were selected according to the method above were extracted for photobleaching analysis. […]

[6] = persons receiving the drug therapeutically, cited from earlier work

T2 sequence (P01137 279-390 limits assumed): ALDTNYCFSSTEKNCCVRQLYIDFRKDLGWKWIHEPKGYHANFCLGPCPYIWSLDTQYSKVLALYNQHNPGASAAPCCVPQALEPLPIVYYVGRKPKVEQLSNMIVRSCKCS
T1 sequence (P01137 279-390 limits assumed): as above
Sequence of TGF-β1 (P01137 279-390 limits assumed): as above

CCCCNC(=N)NC(=N)N [buformin hydrochloride, Buformin hydrochloride]
effect on p-Smad3 induced by TGFβ1 [1]: attenuate

Cl.N=C(NN)NN [1,3-Diaminoguanidine monohydrochloride]
effect on p-Smad3 induced by TGFβ1 [1]: no effect

CN(C)C(=N)N=C(N)N [metformin, metformin hydrochloride]
IC50 [2]: 69.2 µM
Kd [3]: 15.9 µM
binding force of TGF-β1 with TβRII ([4]; 50 μM, control 49.5±1.3, P>0.05): 49.3±1.4 pN
binding probability of TGF-β1 and TβRII ([4]; metformin 50 μM, control 21.7±3.5%): 9.9±1.2%
percentage of TβRII dimers induced by TGF-β1 [5]: inhibited the percentage of dimers induced by TGF-β1 in a dose-dependent manner
Blood or plasma concentrations [6]: 1 to 4 µg/mL
Blood or plasma concentrations ([6]; conversion of μg/mL): 6 to 24 µM

Cc1ccccc1NC(=N)Nc1ccccc1C [1,3-Di(o-tolyl)guanidine]
effect on p-Smad3 induced by TGFβ1 [1]: attenuate

Cl.N=C(N)NC(=N)Nc1cccc(Cl)c1Cl [1-(2,3-Dichlorophenyl) biguanide hydrochloride]
effect on p-Smad3 induced by TGFβ1 [1]: no effect

Cl.N=C(N=C(N)N)N1CCOCC1 [moroxydinehydrochloride]
effect on p-Smad3 induced by TGFβ1 [1]: no effect
